In brackets after ≈: the same amount, converted by molar mass.
Key:
Experiment in all cases: Minimum inhibitory concentration (agar medium)
Assay type in all cases: cell-based
[1] = test system: Candida albicans IFO 1060; conditions: IFO1060, 72 h; Candida albicans IFO 1060, 27° C., 3 days, Sabouraud dextrose agar
Experimental: (§1) The minimum inhibitory concentrations (MIC) in vitro of the compounds 1 to 3 of the present invention against microorganisms belonging to the genera Candida and Aspergillus were determined. (1) The strains of the microorganisms used were as follows. The inoculation solutions were prepared at a concentration of 1×10^6 cells/ml. 1) Candida albicans IFO 1060 (2) As the medium, a Sabouraud dextrose agar medium (Difco: dextrose 2%, agar 1.8%, not adjusted in pH) was used. The samples of the compounds to be tested were used after dissolved in dimethyl sulfoxide. The concentrations of the samples were from […]. The agar media containing the different concentrations of the compounds to be tested were inoculated with the microorganisms, using a microplanter (Sakuma Seisakusho). The microorganisms belonging to the genera Candida were cultured at 27° C. for 3 days, and the microorganisms belonging to the genus Aspergillus at 27° C. for 5 days.

[2] = test system: Candida albicans IFO 1270; conditions: IFO1270, 72 h; Candida albicans IFO 1270, 27° C., 3 days, Sabouraud dextrose agar
Experimental: as §1, with “cells/ml. 2)” for “cells/ml. 1)”, “IFO 1270” for “IFO 1060”

[3] = test system: Candida albicans ATCC 762; conditions: ATCC762, 72 h; Candida albicans ATCC 762, 27° C., 3 days, Sabouraud dextrose agar
Experimental: as §1, with “cells/ml. 3)” for “cells/ml. 1)”, “albicans ATCC 762” for “albicans IFO 1060”

[4] = test system: Candida tropicaris IFO 1400; conditions: IFO1400, 72 h; Candida tropicaris IFO 1400, 27° C., 3 days, Sabouraud dextrose agar
Experimental: as §1, with “cells/ml. 4)” for “cells/ml. 1)”, “Candida tropicaris” for “Candida albicans”, “IFO 1400” for “IFO 1060”

[5] = test system: Candida krusei IFO 1395; conditions: Pichia kudriavzevii, IFO1395, 72 h; Candida krusei IFO 1395, 27° C., 3 days, Sabouraud dextrose agar
Experimental: as §1, with “cells/ml. 5)” for “cells/ml. 1)”, “Candida krusei” for “Candida albicans”, “IFO 1395” for “IFO 1060”

[6] = test system: Candida parapsilosis IFO 1396; conditions: Lodderomyces parapsilosis, IFO1396, 72 h; Candida parapsilosis IFO 1396, 27° C., 3 days, Sabouraud dextrose agar
Experimental: as §1, with “cells/ml. 6)” for “cells/ml. 1)”, “Candida parapsilosis” for “Candida albicans”, “IFO 1396” for “IFO 1060”

[7] = test system: Aspergillus fumigatus IFO 5840; conditions: IFO5840, 120 h; Aspergillus fumigatus IFO 5840, 27° C., 5 days, Sabouraud dextrose agar
Experimental: as §1, with “7) Aspergillus fumigatus” for “1) Candida albicans”, “5840” for “1060”

[8] = test system: Aspergillus fumigatus IFO 9733; conditions: IFO9733, 120 h; Aspergillus fumigatus IFO 9733, 27° C., 5 days, Sabouraud dextrose agar
Experimental: as §1, with “8) Aspergillus fumigatus” for “1) Candida albicans”, “9733” for “1060”

SMILES	MIC [1] [µg/mL]	MIC [2] [µg/mL]	MIC [3] [µg/mL]	MIC [4] [µg/mL]	MIC [5] [µg/mL]	MIC [6] [µg/mL]	MIC [7] [µg/mL]	MIC [8] [µg/mL]
CC1(C)CCC(c2ccc(Cl)cc2)CC1(O)Cn1ccnc1 (racemic) [Compound 2, 2,2-dimethyl-5-(4-chlorophenyl)-1-(1H-imidazol-1-ylmethyl)-cyclohexane-1-ol]	50 (≈ 157 µM)	25 (≈ 78.4 µM)	25 (≈ 78.4 µM)	100 (≈ 314 µM)	> 100	> 100	100 (≈ 314 µM)	100 (≈ 314 µM)
OC1(Cn2ccnc2)CCCC(c2ccc(F)cc2)C1 (centres unmarked) [Compound C, 3-(4-fluorophenyl)-1-(1H-imidazol-1-ylmethyl)-cyclohexane-1-ol, reference compound]	200 (≈ 729 µM)	200 (≈ 729 µM)	200 (≈ 729 µM)	> 400	> 400	> 400	> 400	> 400
CC1(C)CC[C@@H](c2ccc(O)cc2)C[C@@]1(O)Cn1ccnc1 (relative stereo) [Compound 3, 2,2-dimethyl-5-(4-hydroxyphenyl)-1-(1H-imidazoly-1-yl-methyl)-cyclohexane-1-ol]	50 (≈ 166 µM)	100 (≈ 333 µM)	50 (≈ 166 µM)	50 (≈ 166 µM)	200 (≈ 666 µM)	200 (≈ 666 µM)	200 (≈ 666 µM)	200 (≈ 666 µM)
CC1(C)CCC(c2ccc(F)cc2)CC1(O)Cn1ccnc1 (racemic) [Compound 1, 2,2-dimethyl-5-(4-fluorophenyl)-1-(1H-imidazol-1-ylmethyl)-cyclohexane-1-ol]	50 (≈ 165 µM)	50 (≈ 165 µM)	50 (≈ 165 µM)	50 (≈ 165 µM)	50 (≈ 165 µM)	50 (≈ 165 µM)	50 (≈ 165 µM)	50 (≈ 165 µM)

— patent US5571831A, “Imidazole derivative, and pharmaceutical composition” (Kureha Chemical Industry Co., Ltd., priority 1992, dated 1996)
